In US20110224221A1, “HEMATOPOIETIC PROTECTION AGAINST IONIZING RADIATION USING SELECTIVE CYCLIN-DEPENDENT KINASE 4/6 INHIBITORS” (priority 2008, published 2011):
“Also recorded” adds a separate entry of the source.

What was measured:
[1] = system: telomerized human diploid fibroblasts (tHDF); assay: Cell cycle analysis (BrdU incorporation in vitro), tHDF; format: cell-based; details: 24 hours exposure
Excerpt: FIG. 3A is a set of graphs showing the dose-response curves for cycle analysis in both cyclin-dependent kinase 4/6 (CKD4/6)-dependent cells (human telomerized human diploid fibroblasts (tHDFs, left-hand column of graphs) and a CDK4/6-dependent human melanoma cell line (WM2664, middle column of graphs)) and in CDK4/6-independent cells (a human retinoblastoma tumor suppressor protein (RB)-null melanoma cell line (A2058), right-hand column of graphs). […] The percentage of cells in the G1 phase is indicated by the data shown in the open triangles, while the percentage of cells in the S phase is shown by the data in the shaded circles and the percentage of cells in the G2/M phase is indicated by the data in the double “x”s.
Cell Lines: KPTR1, KPTR4. and KPTR5 were derived from tumor-bearing TyrRAS+Ink4a/Arf−/− by standard procedures and cultured in RPMI+10% fetal bovine serum (FBS). Telomerized HDFs (tHDFs, also known as HS68) were cultured in DMEM+10% FBS with penicillin and streptomycin. The same conditions were used for A2058 and WM2664, human melanoma cell lines with known RB-pathway mutations: A2058 is RB-null, whereas WM2664 lacks p16^INK4a/Arf. See Shields, et al., Cancer Res., 67, 1502-1512 (2007). Cells were irradiated for indicated doses in a Rad Source Inc. (Alpharetta, Ga., United States of America) RS-2000 Biological Irradiator at 160 kV, 25.0 mA, at distance setting 1, with a dose rate of 103 rads/min.
BrdU Incorporation in vitro: Cells were plated and allowed to adhere overnight or at least 6 hours prior to adding CDK4/6 inhibitor at the indicated concentrations. Cells were grown for 24 hours in the presence of CDK4/6 inhibitor. 15 minutes prior to cell harvesting, 5-Bromo-2-deoxyuridine (BrdU) was added to the media at a final concentration of 10 μM. The cells were then washed, trypsinized, pelleted, fixed, permeabilized, stained, and measured on a flow cytometer as described in manufacturer directions for the BrdU Kit (BD Biosciences Pharmingen, San Diego, Calif., United States of America).
The proliferation of seven RB-deficient human small cell lung cancer lines was also resistant to the selective CDK4/6 inhibitors.

[2] = system: hematopoietic stem and progenitor cells; assay: HSPC proliferation in vivo (BrdU incorporation, Ki67) by flow cytometry; set-up: species or system mice
Procedure: BrdU Incorporation in vivo: Mice were treated once daily for 2 days with PD 0332991 at 150 mg/kg. 5-Bromo-2-deoxyuridine (BrdU) was given 24 hours after the initiation of PD 0332991 and continued until the animals were sacrificed for analysis: 24 hours of BrdU by intraperitoneal (i.p.) injection every 6 hours at a dose of 1 mg.
For HSPC proliferation experiments, mice received daily oral gavage with PD0332991 for 2 days with 1 mg BrdU intraperitoneal injection every 6 hours for 24 hours prior to sacrifice. BM-MNC harvest and immunophenotyping was performed using RBC lysis, biotin-conjugated Lin-panel incubation (Invitrogen Corporation, Carlsbad, Calif., United States of America), paramagnetic bead-conjugated straptavidin (Miltinyi Biotec, Bergisch Gladbach, Germany) incubation, and magnetic depletion using an AutoMACS (Miltinyi Biotec, Bergisch Gladbach, Germany). At least 2×10^6 Lin-depleted cells per mouse were incubated with fluorescently labeled antibodies against cell surface antigens used to identify hematopoietic progenitor subpopulations as previously described (see Passegue et al., J. Exp. Med., 202, 1599-1611 (2005); and Kiel et al., Cell, 121, 1109-1121 (2005): CD34-FITC, CD16/32-PacificBlue, IL7Ra-PE-Cy5, and cKit-APC-Alexa750 from eBiosciences, Inc. (San Diego, Calif., United States of America); Sca1-PE-Cy7, CD150-PE-Cy5, and CD48-PacificBlue from BioLegend (San Diego, Calif., United States of America); and Aqua Live/Dead viability dye (Invitrogen Corporation, Carlsbad, Calif., United States of America). Streptavidin-PE-TexasRed (Invitrogen Corporation, Carlsbad, Calif., United States of America) was used to confirm efficiency of lineage-depletion. After cell surface staining, cells were fixed, permeabilized, and stained with antibodies against Ki67-FITC, BrdU-APC, and caspase3-PE (BD Biosciences Pharmingen, San Diego, Calif., United States of America).
In all experiments, gating based on isotype controls was used as appropriate. Flow cytometry was performed using a CyAn ADP (Dako, Glostrup, Denmark) and analyzed with FlowJo software (Tree Star, Ashland, Oreg., United States of Ameria). For each bone marrow sample, a minimum of 200,000 cells were analyzed. For cell culture samples, a minimum of 20,000 cells were analyzed.
PD0332991, which is orally bioavailable, was administered to adult wild-type C57Bl/6 mice by oral gavage. […] See Passeque et al., J. Exp. Med., 202, 1599-1611 (2005); Wilson et al., Cell, 125, 1118-1129 (2008); and Kiel et al., Nature, 449, 238-U210 (2007).
2BrIC was solubilized for oral gavage using formulation #6 from the Hot Rod formulation kit (Pharmatek, Inc. San Diego, Calif., United States of America) and given by oral gavage 2 hours prior to BrdU injection. Also, an additional dose was given at the time of BrdU injection to sustain the G1 arrest in bone marrow.

[3] = system: peripheral blood lineages; assay: Peripheral blood counts after TBI; format: in vivo, mice; details: for bone marrow protection: after IR; for protection/recovery of peripheral blood lineages: platelets, erythrocytes, myeloid cells, lymphocytes after IR
Procedure: For comparison, data from mice that had not been exposed to IR is also shown (lightly shaded bars). […] Error bars show standard error of the mean.
Data was prepared from weekly complete blood counts on tail vein bleeds. Asterisk(s) indicate statistical significance determined by a 2-sided t-test. Error bars are +/− the standard error of the mean.
For TBI experiments, mice were irradiated using a ^137Cs source (AECL Gammacell 40 Irradiator, Atomic Energy of Canada Ltd, Mississauga, Ontario, Canada). Delivered doses were at or near the empirically determined LD90 of 7.5 Gy, consistent with prior studies. See Na Nakorn et al., J. Clin. Invest., 109, 1579-1585 (2002); Herodin et al., Blood, 101, 2609-2616 (2003); Uckun et al., Blood, 75, 638-645 (1990); and Wang et al., Proc. Natl. Acad. Sci., USA, 94, 14590-14595 (1997). Peripheral blood was collected using a tail vein nick for complete blood cells (CBCs) and analyzed with a HemaTrue analyzer (Heska Co., Loveland, Colo., United States of America).
The peripheral blood of animals after IR exposure was studied to confirm that the improved survival was due to protection of hematopoietic lineages.

[4] = among oligopotent progenitors, 48 hours treatment

| SMILES | cell cycle effect [1] | proliferation in early HSPC (BrdU incorporation, Ki67) ([2]; 48 hours treatment) | proliferation of Lin−Kit−Sca1− and Lin+ cells ([2]; 48 hours treatment) | frequency of HSC doubly positive for expression of Ki67 and BrdU ([2]; HSC (Lin−Kit+Sca1+CD48−CD150+), 48 hours treatment, oral gavage, C57Bl/6) | proliferation of oligopotent progenitors ([2]; Lin−Kit+Sca1−, 48 hours treatment) | proliferation of multipotent progenitor cell compartment ([2]; MPP (Lin−Kit+Sca1+CD48−CD150−), 48 hours treatment) | proliferation of CMP and CLP [2, 4] | proliferation of GMP and MEP [2, 4] | bone marrow protection [3] | anemia and thrombocytopenia ([3]; lethally irradiated mice (7.5 Gy)) | protection/recovery of peripheral blood lineages [3] | protection/recovery of peripheral blood lineages ([3]; listed as PD 0332991) | blood count nadirs and recovery ([3]; sub-lethal dose of TBI (6.5 Gy)) | incorporation of BrdU into MPP ([2]; Lin−Kit+Sca1+ cells, oral gavage 2 hours prior to and at BrdU injection, relative to formulation alone) |
| --- | --- | --- | --- | --- | --- | --- | --- | --- | --- | --- | --- | --- | --- | --- |
| CC(=O)c1c(C)c2cnc(Nc3ccc(N4CCNCC4)cn3)nc2n(C2CCCC2)c1=O [PD0332991, 6-acetyl-8-cyclopentyl-5-methyl-2-(5-piperazin-1-yl-pyridin-2-ylamino)-8H-pyrido-[2,3-d]-pyrimidin-7-one] | strong, reversible G1-arrest | clearly reduces proliferation | no change in proliferation | significantly decreased | modest inhibition of proliferation | more pronounced inhibition of proliferation | strongest effects | weaker effects | marked bone marrow protection | significantly ameliorated | beneficial effect on the recovery of all peripheral blood lineages | protects all lineages of blood cells | diminished count nadirs and caused more rapid count recovery |  |
| O=C1NC(=O)c2c1c1c3ccccc3[nH]c1c1[nH]c3cc(Br)ccc3c21 [Compound 2BrIC, 2-bromo-12,13-dihydro-5H-indolo[2,3-a]pyrrolo[3,4]-carbazole-5,6-dione] | strong, reversible G1-arrest |  |  |  |  |  |  |  | marked bone marrow protection |  |  |  |  | inhibited the incorporation of BrdU; also recorded: clearly reducing proliferation of the MPP |
